Assay results reported in US10849994B2, “Pharmaceutical composition comprising fluorine-18 labelled gases” (ASOCIACIÓN CENTRO DE INVESTIGACIÓN COOPERATIVA EN …, priority 2016, dated 2020).

Experiment: PET-CT ventilation imaging after inhalation of the radioactive gas
Format: in vivo, rat (Sprague-Dawley)
Settings: male rats
Protocol: Imaging studies were conducted with [^18F]CF4.
Male rats (n=2) weighing 350±14 g (Sprague-Dawley, Harlan, Udine, Italy) were used to perform PET studies. The animals were cared for and handled in accordance with the Guidelines for Accommodation and Care of Animals (European Convention for the Protection of Vertebrate Animals Used for Experimental and Other Scientific Purposes) and internal guidelines, and experimental procedures were approved by the Ethical Committee and local authorities.
The radioactive gas was administered by inhalation, by mixing the mixture [^18F]CF4/CF4/Ne obtained at the end of the production process (process A) with the oxygen carrier gas. With that aim, the system depicted in FIG. 3 was implemented.
PET studies were performed using an eXploreVista-CT small animal PET-CT system (GE Healthcare).
Step 1: Rats were anesthetized in an induction chamber using a mixture of 3-4% isoflurane in O2.
Step 2: Animals were rapidly moved into the PET-CT camera, were anaesthesia was maintained with a mixture of 1.5-2.0% isofluorane in O2. During the stay into the PET-CT camera, animals were kept normothermic using a heating blanket (Homeothermic Blanket Control Unit; Bruker). Regular breathing (frequency of 50±10 breaths/minute) was maintained by adjustment of anaesthetic conditions. Respiration and body temperature of the animals were monitored throughout the scan.
Step 3: At t=0 min, with the animal under anaesthesia, acquisition of PET images was started in list mode.
Step 4: At t=1 minute, the syringe pump was started and the radioactive gas ([^18F]CF4, diluted with Neon and non-radioactive CF4, 74 MBq, 2 mCi) was introduced in the main stream of oxygen and consequently administered to the animal.
Step 5: At t=2 minutes, the syringe pump was stopped, and image acquisition was continued until t=10 minutes.
Step 6: After finalising the PET image acquisition, a whole body CT scan was performed, providing anatomical information as well as the attenuation map, for the later image reconstruction.
Images were reconstructed (decay and CT-based attenuation corrected) with OSEM-2D. Twenty nine frames (3×20s, 10×10s, 4×20s and 12×30s) were defined to gain information about the spatiotemporal distribution of the radioactivity. PET images were analysed using PMOD image analysis software (PMOD Technologies Ltd, Zurich, Switzerland). Volumes of interest (VOIs) were manually drawn in the lungs on the CT images. VOIs were then transferred to the PET images and the concentration of radioactivity was obtained for each organ and time frame as cps/cm^3. All frames were finally summed and re-processed to get more accurate images of the distribution of radioactivity within the lungs.

With `FC(F)(F)[18F]` [[^18F]CF4, ^18F-labelled carbon tetrafluoride] the “distribution of the radioactive gas in the lungs (summed PET-CT images, FIG. 8)” value (n=2, 74 MBq in O2/isoflurane, delivered t=1-2 min, all frames summed) was “uniform distribution of the radioactive gas in the lungs”, the “elimination of the radioactivity from the lungs after delivery of the radioactive gas is discontinued” value (n=2, after the syringe pump was stopped at t=2 min) was “almost complete elimination of the radioactivity is achieved in a few seconds” and the “time-activity curve of a VOI drawn in the whole lungs: plateau (FIG. 9)” value (n=2, during gas delivery) was “reached immediately after the onset of contrast agent administration”. For the same compound, the “distribution of the radioactive gas in the lungs (dynamic images)” value (n=2, dynamic PET frames) was “immediate distribution of the radioactive gas in the lungs”.
